US10913781B2, “Pepducin design and use” (Tufts Medical Center, Inc., priority 2011, dated 2021)
Peptide text beside a SMILES is read from it. * marks the point of attachment. Palmitoyl = CCCCCCCCCCCCCCCC(=O)*

Legend:
PAR2-homodimers = target: T1, PAR2-homodimers (Homo sapiens, UniProt P55085, Q172R/R173Q/R36A); assay: Migration of HEK cells co-expressing PAR2-R36A and PAR2-RQ toward trypsin; format: cell-based; conditions: 30 nM trypsin; 18 h
T1 construct: expressed in transfected cells; host or cells: HEK
T1 sequence (P55085 26-397 R36A): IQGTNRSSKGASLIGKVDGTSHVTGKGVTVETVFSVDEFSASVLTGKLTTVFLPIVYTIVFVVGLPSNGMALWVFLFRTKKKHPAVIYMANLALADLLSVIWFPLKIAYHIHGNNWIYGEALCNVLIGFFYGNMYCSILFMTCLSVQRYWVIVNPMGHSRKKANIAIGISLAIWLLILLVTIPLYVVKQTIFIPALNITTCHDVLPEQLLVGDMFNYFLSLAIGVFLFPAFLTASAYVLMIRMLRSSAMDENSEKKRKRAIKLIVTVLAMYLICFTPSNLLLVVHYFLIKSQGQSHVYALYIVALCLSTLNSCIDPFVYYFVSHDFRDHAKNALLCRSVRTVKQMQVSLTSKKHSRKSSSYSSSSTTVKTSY
T1 sequence (P55085 37-397 Q172R/R173Q): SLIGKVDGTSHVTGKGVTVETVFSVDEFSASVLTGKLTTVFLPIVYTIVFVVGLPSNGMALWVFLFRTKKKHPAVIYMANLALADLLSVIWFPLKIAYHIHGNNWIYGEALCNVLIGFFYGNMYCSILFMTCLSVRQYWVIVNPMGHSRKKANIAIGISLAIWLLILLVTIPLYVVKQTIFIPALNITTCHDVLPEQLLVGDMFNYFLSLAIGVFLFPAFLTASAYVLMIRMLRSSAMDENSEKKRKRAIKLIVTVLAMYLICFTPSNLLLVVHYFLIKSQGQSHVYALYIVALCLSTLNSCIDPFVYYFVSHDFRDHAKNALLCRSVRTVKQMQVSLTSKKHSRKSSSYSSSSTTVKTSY
Method: (A) PAR2 antagonist pepducins P2pal-18S and P2pal-14GQ inhibit calcium flux induced by PAR2 (SLIGRL) (SEQ ID NO:4) but not PAR1 (TFLLRN) (SEQ ID NO:2) agonists. SW620 cells were stably transfected with PAR1 and pretreated for 1 min with various concentrations of P2pal-18S or P2pal-14GQ and then stimulated with 30 μM PAR agonist. […] Cells were stimulated with 1 μM TFLLRN (SEQ ID NO:2), 1 μM SLIGRL (SEQ ID NO:4) or 100 μM AYPGKF (SEQ ID NO:5) and [^3H]-InsP formation measured over 30 min. (C) SW620 cells were treated with the indicated concentrations of P2pal-18S or P2pal-14GQ in the upper well of an 8-μm pore Boyden chamber and allowed to migrate for 18 h towards 10 μM of the PAR2 specific agonist SLIGRL in the lower chamber. The migration to RPMI/0.1% FBS represents random migration. (D) Migration of HEK cells transiently transfected with PAR2 (wild-type, WT), or PAR2-R36A/PAR2-RQ toward chemotactic gradients of 30 nM trypsin in the absence or presence of the indicated concentration of P2pal-18S for 18 h in a transwell apparatus ([…]). Data (n=2-4) are mean±SEM. *, P<0.05 and **, P<0.005.
To provide functional evidence that one PAR2 receptor can interact with an adjacent PAR2 receptor, a signaling dead PAR2-RQ mutant was constructed by transposing residues at Q172 and R173 located in the critical ‘DRY’ TM3 motif (FIG. 1A, the second set of sequence labeled as “QR->RQ”). […]

PAR2 = PAR2 (Mus musculus, UniProt P55086); assay: λ-carrageenan/kaolin-induced mouse paw edema and inflammation (PAR2 pepducin); format: in vivo; parameters: from tissue; host or cells: living C57BL/6 mice, hindpaw; conditions: 10 mg/kg s.c.
Chain of PAR2 (P55086 26-399): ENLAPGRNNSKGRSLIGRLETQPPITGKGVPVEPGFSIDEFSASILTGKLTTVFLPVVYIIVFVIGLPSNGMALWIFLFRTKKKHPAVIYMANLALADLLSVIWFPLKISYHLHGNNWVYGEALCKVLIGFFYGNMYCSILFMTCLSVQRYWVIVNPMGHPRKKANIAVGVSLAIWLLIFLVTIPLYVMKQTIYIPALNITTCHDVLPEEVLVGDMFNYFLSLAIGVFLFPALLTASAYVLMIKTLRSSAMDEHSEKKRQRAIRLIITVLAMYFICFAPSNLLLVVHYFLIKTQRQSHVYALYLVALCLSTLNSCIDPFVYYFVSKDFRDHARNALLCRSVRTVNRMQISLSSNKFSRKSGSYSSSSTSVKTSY

PAR1 [1] = target: T2, PAR1 (Homo sapiens, UniProt P25116); assay: Human platelet Ca2+ flux stimulated with SFLLRN; format: cell-based; parameters: endogenous in cells; host or cells: A549, HOP62, H1299, H522, H226, HOP92 lung carcinoma lines; conditions: human platelets
T2 sequence (P25116 22-425): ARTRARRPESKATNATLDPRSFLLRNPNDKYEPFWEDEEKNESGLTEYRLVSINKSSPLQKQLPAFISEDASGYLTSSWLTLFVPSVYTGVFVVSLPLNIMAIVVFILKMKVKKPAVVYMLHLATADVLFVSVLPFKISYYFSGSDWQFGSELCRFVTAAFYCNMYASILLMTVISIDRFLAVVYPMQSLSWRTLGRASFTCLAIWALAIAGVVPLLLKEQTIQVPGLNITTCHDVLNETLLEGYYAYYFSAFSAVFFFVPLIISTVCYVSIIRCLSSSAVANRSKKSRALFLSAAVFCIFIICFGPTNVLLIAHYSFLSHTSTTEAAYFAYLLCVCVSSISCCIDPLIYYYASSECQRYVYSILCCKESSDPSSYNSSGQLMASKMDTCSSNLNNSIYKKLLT
From the text: FIG. 8 illustrates data that show membrane-tethered PAR1-i3 and i1 pepducins block Ca^2+ flux and migration. (A): Model of PAR1 based on the […] structure of rhodopsin from Swift et al., 2006. Protease cleaved receptor results in generation of a new tethered ligand. The topologic arrangement of the […] to i4 loops and G proteins are illustrated. Schematic diagram of palmitoylated PAR1 i3 and i1 pepducins and their amino acid sequence composition are shown. (B): Effect of PAR1 pepducins on human platelets Ca^2+ flux. Platelets were preincubated with indicated concentrations of pepducins and stimulated with SFLLRN. Effect of blockade is expressed as the percentage of full Ca^2+ signal generated with SFLLRN in the absence of inhibitors. (C): Migration of A549 cells toward 0.3 nmol/L thrombin or 10 μmol/L […] in the presence or absence of 3 μmol/L P1pal-7, P1pal-10S, or P1pal-i1-11 after 18 hours. […] Cell migration is expressed as fold migration of ligand-mediated migration divided by basal migration.
First, it had been previously shown that PAR1 strongly couples to Gq in human platelets as assessed by Ca^++ signaling. In order to determine effect of i1 and i3 pepducins on PAR1 mediated Gq-PLCβ-lnsP3 signaling, human platelets were pretreated with PAR1 pepducins and stimulated with SFLLRN, before the rate of Ca^++ flux was measured.

PAR1 [2] = target: T2, PAR1; assay: Migration of primary patient lung tumor cells; format: cell-based; parameters: endogenous in cells; host or cells: A549, HOP62, H1299, H522, H226, HOP92 lung carcinoma lines
Method: FIG. 12 illustrates that PAR1 is a promigratory factor in lung cancer cells. (A-F): Inhibition of lung cancer migration in adenocarcinomas A549, HOP62, H1299 and H522, H226 squamous, and HOP92 large cell using PAR1 pepducins. Pepducins at […] (P1pal-7, P1pal-10S, P1pal-i1-11, or negative control P1pal-19EE) were added to the lower well. (G): Cell from primary lung tumors or nonmalignant control were pretreated with PAR1 pepducins and migration was determined (*P<0.05, **P<0.01).
Further experiments were carried out to determine whether migration of the primary carcinoma cell lines isolated from lung tumors could be inhibited by PAR1 pepducins (FIG. 12G). […] Likewise, the RWJ-56110 small-molecule antagonist of PAR1 (Andrade-Gordon, et al., Proc. Natl Acad Sci USA, 96 (1999), pp. 12257-12262) suppressed up to 55% of the migration of primary lung tumor cells toward NIH-3T3 conditioned media. The PAR1 antagonist pepducin P1pal-7 and P1pal-i1-11 had no effect on the low-expressing PAR1 cell line derived from benign lung tissue, which migrated poorly (FIG. 12G).

Row | SMILES | Suppression of chemotactic migration (transactivation of PAR2-homodimers) (PAR2-homodimers) | Effect on increase in myeloperoxidase activity in hindpaw tissue (PAR2; 7 h after λ-carrageenan/kaolin, WT mice) | Protection against leukocytic infiltrates in the dermis of the footpads (PAR2; 7 h post λ-carrageenan/kaolin) [%] | Effect on swelling in PAR2-deficient mice (PAR2; PAR2-deficient mice) | Decrease in λ-carrageenan/kaolin-induced edema (PAR2; WT C57BL/6 mice) [%] | Effect on paw edema in mast cell-deficient mice (PAR2; mast cell-deficient mice, λ-carrageenan/kaolin) | Extent of inhibition of calcium mobilization (PAR1 [1]) | Effect on migration of low-expressing PAR1 cell line derived from benign lung tissue (PAR1 [2])
1 | CCCCCCCCCCCCCCCC(=O)N[C@@H](CCCNC(=N)N)C(=O)N[C@@H](CO)C(=O)N[C@@H](CO)C(=O)N[C@@H](C)C(=O)N[C@@H](CCSC)C(=O)N[C@@H](CC(=O)O)C(=O)N[C@@H](CCC(=O)O)C(=O)N[C@@H](CC(N)=O)C(=O)N[C@@H](CO)C(=O)N[C@@H](CCC(=O)O)C(=O)N[C@@H](CCCCN)C(=O)N[C@@H](CCCCN)C(=O)N[C@@H](CCCNC(=N)N)C(=O)N[C@@H](CCCCN)C(=O)N[C@@H](CO)C(=O)N[C@@H](C)C(=O)N[C@H](C(=O)N[C@@H](CCCCN)C(N)=O)[C@@H](C)CC [P2pal-18S] | complete suppression | blocked | 60 | did not further reduce swelling | 50 | could not be further reduced | – | –
2 | CCCCCCCCCCCCCCCC(=O)N[C@H](C(=O)N[C@@H](CC(C)C)C(=O)N[C@@H](CCCCN)C(=O)N[C@@H](CCSC)C(=O)N[C@@H](CCCCN)C(=O)N[C@H](C(=O)N[C@@H](CCCCN)C(=O)N[C@@H](CCCCN)C(=O)N1CCC[C@H]1C(=O)N[C@@H](C)C(=O)N[C@H](C(N)=O)C(C)C)C(C)C)[C@@H](C)CC [P1pal-i1-11] (Palmitoyl-ILKMKVKKPAV-NH2) | – | – | – | – | – | – | less effective in inhibiting the Gq mediated calcium signal | no effect
